{
  "source": "patent US12350270B2",
  "about": "“Antimalarial agents” (Merck Sharp & Dohme LLC, priority 2019, dated 2025)",
  "data": [
    {"tested_on": "parasites (ring stage, in human red blood cell culture)", "test": "Parasite LDH growth assay (antiparasite potency, Parasite Assay)", "format": "cell-based, Plasmodium falciparum", "settings": "0.7% rings, 2% haematocrit, 72 hours at 37° C., LDH readout of parasite growth", "method_in_brief": "(§1)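 Ring-stage parasites at 0.7% parasitemia and 2% haematocrit, in RPMI-Hepes/bicarbonate with 5% heat-inactivated human serum and 0.5% albumax, were added to compound-containing medium. Cultures grew 72 h at 37 °C in gassed humidified boxes. Plates were then frozen overnight at −80 °C, thawed 4 h, and growth was measured by LDH assay.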", "units": {"EC50": "nM"}, "values": [
      {"compound": "CCC1(CC)CC(=O)N([C@@H]2CCOc3ccc(C(=O)NC4c5cc(F)ccc5OCC4(C)O)cc32)C(=N)N1", "note": "(single isomer, unassigned) [Example 226D]", "EC50": 1},
      {"compound": "CCC1(CC)CC(=O)N(C2c3cc(C(=O)N[C@@H]4c5ccccc5OC(C)(C)[C@H]4O)ccc3CC2OC)C(=N)N1", "note": "(single isomer, unassigned) [Example 251C]", "EC50": 84.4},
      {"compound": "CCC1(CC)CC(=O)N([C@@H]2CCOc3ccc(C(=O)NC4c5ccccc5OC(C)(C)C4(C)O)cc32)C(=N)N1", "note": "(single isomer, unassigned) [Example 242A]", "EC50": 0.6},
      {"compound": "CCC1(CC)CC(=O)N([C@@H]2CCOc3ccc(C(=O)N[C@@H]4c5ccccc5OC(C(F)(F)F)C4O)cc32)C(=N)N1", "note": "(single isomer, unassigned) [Example 32A]", "EC50": 7.9},
      {"compound": "CCC1(CC)CC(=O)N(C2c3cc(C(=O)N[C@@H]4c5ccccc5C[C@H]4O)ccc3OC2(C)CO)C(=N)N1", "note": "(single isomer, unassigned) [Example 178B]", "EC50": 2.2}
    ]},
    {"tested_on": "parasites (ring stage, in human red blood cell culture)", "test": "Parasite LDH growth assay (antiparasite potency, Parasite Assay)", "format": "cell-based, Plasmodium falciparum", "settings": "Plasmodium falciparum, Erythrocyte, 72 h, 0.7% rings, 2% haematocrit, 72 hours at 37° C., LDH readout of parasite growth", "method_in_brief": "as §1", "units": {"EC50": "nM"}, "values": [
      {"compound": "CCC1(CC)C[C@@H](N2C(=N)NC(C)(C)CC2=O)c2cc(C(=O)N[C@@H]3c4ccccc4OC(C)(C)[C@H]3O)ccc2O1", "note": "[Example 50A, (R)-2,2-diethyl-N-((3S,4R)-3-hydroxy-2,2-dimethylchroman-4-yl)-4-(2-imino-4,4-dimethyl-6-oxotetrahydropyrimidin-1(2H)-yl)chromane-6-carboxamide]", "EC50": 3.7},
      {"compound": "CCC1(CC)CC(=O)N([C@@H]2c3cc(C(=O)N[C@@H]4c5ccccc5OC(C)(C)[C@H]4O)ccc3OC[C@@]2(C)OC)C(=N)N1", "note": "[Example 295, (3S,4R)-4-(4,4-diethyl-2-imino-6-oxo-hexahydropyrimidin-1-yl)-N-[(3S,4R)-3-hydroxy-2,2-dimethyl-chroman-4-yl]-3-methoxy-3-methyl-chromane-6-carboxamide]", "EC50": 100},
      {"compound": "CCC1(CC)CC(=O)N([C@H]2c3cc(C(=O)N[C@@H]4c5ccccc5OC[C@@]4(C)O)ccc3O[C@]2(C)COC)C(=N)N1", "note": "[Example 279, (2S,3S)-3-(4,4-diethyl-2-imino-6-oxo-hexahydropyrimidin-1-yl)-N-[(3S,4R)-3-hydroxy-3-methyl-chroman-4-yl]-2-(methoxymethyl)-2-methyl-3H-benzofuran-5-carboxamide]", "EC50": 31.4},
      {"compound": "CCC1(CC)CC(=O)N([C@@H]2C[C@H](OC)c3ccc(C(=O)N[C@@H]4c5ccccc5C[C@H]4O)cc32)C(=N)N1", "note": "[Example 117, (1S,3R)-3-(4,4-diethyl-2-imino-6-oxo-hexahydropyrimidin-1-yl)-N-[(1R,2R)-2-hydroxyindan-1-yl]-1-methoxy-indane-5-carboxamide]", "EC50": 2.5},
      {"compound": "CCC1(CC)CC(=O)N([C@@H]2C[C@@H](COC)Oc3ccc(C(=O)N[C@@H]4c5ccccc5OC[C@@]4(C)O)cc32)C(=N)N1", "note": "[Example 283, (2S,4R)-4-(4,4-diethyl-2-imino-6-oxo-hexahydropyrimidin-1-yl)-N-[(3S,4R)-3-hydroxy-3-methyl-chroman-4-yl]-2-(methoxymethyl)chromane-6-carboxamide]", "EC50": 2.6},
      {"compound": "CCC1(CC)CC(=O)N([C@H]2C[C@H](OC)c3ccc(C(=O)N[C@@H]4c5ccccc5OC(C)(C)[C@H]4O)cc32)C(=N)N1", "note": "[Example 237, (1S,3S)-3-(4,4-diethyl-2-imino-6-oxo-hexahydropyrimidin-1-yl)-N-[(3S,4R)-3-hydroxy-2,2-dimethyl-chroman-4-yl]-1-methoxy-indane-5-carboxamide]", "EC50": 240},
      {"compound": "CC[C@]1(C)CC(=O)N([C@H]2c3cc(C(=O)N[C@@H]4c5ccccc5C[C@@]4(C)O)ccc3OC[C@@H]2COC)C(=N)N1", "note": "[Example 202, (3S,4R)-4-[(4R)-4-ethyl-2-imino-4-methyl-6-oxo-hexahydropyrimidin-1-yl]-N-[(1R,2R)-2-hydroxy-2-methyl-indan-1-yl]-3-(methoxymethyl)chromane-6-carboxamide]", "EC50": 0.8},
      {"compound": "CC1(C)CC(=O)N([C@H]2c3cc(C(=O)N[C@@H]4c5ccccc5C[C@H]4O)ccc3CC2(C)C)C(=N)N1", "note": "[Example 87, N-[(1R,2R)-2-hydroxyindan-1-yl]-3-(2-imino-4,4-dimethyl-6-oxo-hexahydropyrimidin-1-yl)-2,2-dimethyl-indane-5-carboxamide]", "EC50": 105},
      {"compound": "CCC1(CC)CC(=O)N(C2CC(C)Oc3ccc(C(=O)N[C@@H]4c5ccccc5OC[C@@]4(C)O)cc32)C(=N)N1", "note": "(stereo partly drawn) [Example 209, 4-(4,4-diethyl-2-imino-6-oxo-hexahydropyrimidin-1-yl)-N-[(3S,4R)-3-hydroxy-3-methyl-chroman-4-yl]-2-methyl-chromane-6-carboxamide]", "EC50": 7.9},
      {"compound": "CCC1(CC)CC(=O)N([C@@H]2CC(COC)Oc3ccc(C(=O)N[C@@H]4c5ccccc5OC(C)(C)[C@H]4O)cc32)C(=N)N1", "note": "(stereo partly drawn) [Example 18A, (4R)-4-(4,4-diethyl-2-imino-6-oxotetrahydropyrimidin-1(2H)-yl)-N-((3S,4R)-3-hydroxy-2,2-dimethylchroman-4-yl)-2-(methoxymethyl)chromane-6-carboxamide]", "EC50": 0.8},
      {"compound": "C[C@@H]1C[C@@H](N2C(=N)NC(C)(C)CC2=O)c2cc(C(=O)N[C@@H]3c4ccccc4OC(C)(C)[C@H]3O)ccc21", "note": "[Example 138, (1R,3R)-N-[(3S,4R)-3-hydroxy-2,2-dimethyl-chroman-4-yl]-3-(2-imino-4,4-dimethyl-6-oxo-hexahydropyrimidin-1-yl)-1-methyl-indane-5-carboxamide]", "EC50": 0.9},
      {"compound": "C[C@@H]1C[C@@H](N2C(=N)NC(C)(C)CC2=O)c2cc(C(=O)N[C@@H]3c4ccccc4C[C@H]3O)ccc21", "note": "[Example 82, (1R,3R)-N-[(1R,2R)-2-hydroxyindan-1-yl]-3-(2-imino-4,4-dimethyl-6-oxo-hexahydropyrimidin-1-yl)-1-methyl-indane-5-carboxamide]", "EC50": 15.5},
      {"compound": "CC(C)[C@]1(C)CC(=O)N([C@@H]2CC(C)(C)Oc3ccc(C(=O)N[C@@H]4c5ccccc5C[C@H]4O)cc32)C(=N)N1", "note": "[Example 39A, (R)-N-((1R,2R)-2-hydroxy-2,3-dihydro-1H-inden-l-yl)-4-((S)-2-imino-4-isopropyl-4-methyl-6-oxotetrahydropyrimidin-1(2H)-yl)-2,2-dimethylchromane-6-carboxamide]", "EC50": 29.9},
      {"compound": "CC1(C)CC(=O)N([C@@H]2CC(C)(C)c3ccc(C(=O)N[C@@H]4c5ccccc5OC(C)(C)[C@H]4O)cc32)C(=N)N1", "note": "[Example 160, (3R)-N-[(3S,4R)-3-hydroxy-2,2-dimethyl-chroman-4-yl]-3-(2-imino-4,4-dimethyl-6-oxo-hexahydropyrimidin-1-yl)-1,1-dimethyl-indane-5-carboxamide]", "EC50": 8.3},
      {"compound": "CC1(C)CC(=O)N([C@@H]2CCOc3ccc(C(=O)N[C@@H]4c5ccccc5OC(C)(C)[C@H]4O)cc32)C(=N)N1", "note": "[Example 62A, (R)-N-((3S,4R)-3-hydroxy-2,2-dimethylchroman-4-yl)-4-(2-imino-4,4-dimethyl-6-oxotetrahydropyrimidin-1(2H)-yl)chromane-6-carboxamide]", "EC50": 1.2},
      {"compound": "CCC1(CC)CC(=O)N([C@@H]2C[C@H](OC)c3ccc(C(=O)N[C@@H]4c5ccccc5OC(C)(C)[C@H]4O)cc32)C(=N)N1", "note": "[Example 239, (1S,3R)-3-(4,4-diethyl-2-imino-6-oxo-hexahydropyrimidin-1-yl)-N-[(3S,4R)-3-hydroxy-2,2-dimethyl-chroman-4-yl]-1-methoxy-indane-5-carboxamide]", "EC50": 0.9}
    ]}
  ]
}
